Measured values taken from patent US10988485B2 (Amgen Inc., priority 2018, dated 2021).

Biological target: GDP-bound KRAS protein (aa 1-169), containing both G12C and C118A amino acid substitutions (Homo sapiens, UniProt P01116, C118A/G12C)
Test: Coupled Nucleotide Exchange Assay (SOS-mediated nucleotide exchange, AlphaScreen)
Assay type: biochemical
Settings: compound pre-incubation either 5 min or 2 hours (not stated per compound); SOS and GTP added, cRAF AlphaScreen read-out
Method: For compounds in Table 6, the following assay conditions were employed:
Coupled Nucleotide Exchange Assay: Purified GDP-bound KRAS protein (aa 1-169), containing both G12C and C118A amino acid substitutions and an N-terminal His-tag, was pre-incubated in assay buffer (25 mM HEPES pH 7.4, 10 mM MgCl2, and 0.01% Triton X-100) with a compound dose-response titration for either 5 min or 2 hours (see Table 15). Following compound pre-incubation, purified SOS protein (aa 564-1049) and GTP (Roche 10106399001) were added to the assay wells and incubated for an additional 30 min (for 5 min compound pre-incubation) or 1 hour (for 2 hour compound pre-incubation). To determine the extent of inhibition of SOS-mediated nucleotide exchange, purified GST-tagged cRAF (aa 1-149), nickel chelate AlphaLISA acceptor beads (PerkinElmer AL108R), and AlphaScreen glutathione donor beads (PerkinElmer 6765302) were added to the assay wells and incubated for 10 minutes. The assay plates were then read on a PerkinElmer EnVision Multilabel Reader, using AlphaScreen® technology, and data were analyzed using a 4-parameter logistic model to calculate IC50 values.

Sequence of GDP-bound KRAS protein (aa 1-169), containing both G12C and C118A amino acid substitutions (P01116 1-169 isoform P01116-2 G12C/C118A): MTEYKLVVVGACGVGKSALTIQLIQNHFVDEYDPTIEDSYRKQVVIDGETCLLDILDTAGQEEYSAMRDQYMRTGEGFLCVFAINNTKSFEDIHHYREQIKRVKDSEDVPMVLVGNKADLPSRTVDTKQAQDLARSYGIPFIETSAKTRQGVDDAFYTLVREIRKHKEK

In order of falling IC50:
1. C=CC(=O)N1C[C@H](C)N(C2=NS(=O)(=O)N(c3ccccc3C(C)(C)C)c3nc(-c4ccccc4F)c(Cl)cc32)C[C@H]1C [Example 1-1-2, 1-((2R,5S)-4-(6-chloro-7-(2-fluorophenyl)-1-(2-(2-methyl-2-propanyl)phenyl)-2,2-dioxido-1H-pyrido[2,3-c][1,2,6]thiadiazin-4-yl)-2,5-dimethyl-1-piperazinyl)-2-propen-1-one]  70800 nM
2. C=CC(=O)N1C[C@H](C)N(C2=NS(=O)(=O)N(c3ccccc3C(C)(C)C)c3nc(-c4c(N)cccc4F)c(Cl)cc32)C[C@H]1C (single isomer, unassigned) [Example 1-8-2]  69300 nM
3. C=CC(=O)N1C[C@H](C)N(C2=NS(=O)(=O)Nc3nc(-c4ccccc4F)c(Cl)cc32)C[C@H]1C [Example 7, 1-((2R,5S)-4-(6-Chloro-7-(2-fluorophenyl)-2,2-dioxido-1H-pyrido[2,3-c][1,2,6]thiadiazin-4-yl)-2,5-dimethyl-1-piperazinyl)-2-propen-1-one]  16400 nM
4. C=CC(=O)N1C[C@H](C)N(C2=NS(=O)(=O)N(c3c(N)ncnc3C(C)C)c3nc(-c4ccccc4F)c(Cl)cc32)C[C@H]1C (single isomer, unassigned) [Example 9-2]  11200 nM
5. C=CC(=O)N1C[C@H](C)N(C2=NS(=O)(=O)N(c3c(C)cc(CN(C)C)nc3C(C)C)c3nc(-c4ccccc4F)c(Cl)cc32)C[C@H]1C [Example 4, 1-((2R,5S)-4-(6-Chloro-1-(6-((dimethylamino)methyl)-4-methyl-2-(2-propanyl)-3-pyridinyl)-7-(2-fluorophenyl)-2,2-dioxido-1H-pyrido[2,3-c][1,2,6]thiadiazin-4-yl)-2,5-dimethyl-1-piperazinyl)-2-propen-1-one]  5960 nM
6. C=CC(=O)N1C[C@H](C)N(C2=NS(=O)(=O)N(c3ccccc3C(C)(C)C)c3nc(-c4ccccc4S(C)(=O)=O)c(Cl)cc32)C[C@H]1C (atropisomer, axis not shown) [Example 1-10-2]  5950 nM
7. C=CC(=O)N1C[C@H](C)N(C2=NS(=O)(=O)N(c3ccc(CN(C)C)cc3C(C)(C)C)c3nc(-c4ccccc4F)c(Cl)cc32)C[C@H]1C [Example 1-13-2, 1-((2R,5S)-4-(6-chloro-1-(4-((dimethylamino)methyl)-2-(2-methyl-2-propanyl)phenyl)-7-(2-fluorophenyl)-2,2-dioxido-1H-pyrido[2,3-c][1,2,6]thiadiazin-4-yl)-2,5-dimethyl-1-piperazinyl)-2-propen-1-one]  3870 nM
8. C=CC(=O)N1C[C@H](C)N(C2=NS(=O)(=O)N(c3c(C)ccnc3C(C)C)c3nc(-c4ccccc4C)c(Cl)cc32)C[C@H]1C (single isomer, unassigned) [Example 1-12-2]  3550 nM
9. C=CC(=O)N1C[C@H](C)N(C2=NS(=O)(=O)N(c3c(C)cc(N)nc3C(C)C)c3nc(-c4ccccc4F)c(Cl)cc32)C[C@H]1C (atropisomer, axis not shown) [Example 10-1, 1-((2R,5S)-4-(1-(6-amino-4-methyl-2-(2-propanyl)-3-pyridinyl)-6-chloro-7-(2-fluorophenyl)-2,2-dioxido-1H-pyrido[2,3-c][1,2,6]thiadiazin-4-yl)-2,5-dimethyl-1-piperazinyl)-2-propen-1-one]  3500 nM
10. C=CC(=O)N1C[C@H](C)N(C2=NS(=O)(=O)N(c3c(CC)cccc3CC)c3nc(-c4ccccc4F)c(Cl)cc32)C[C@H]1C [Example 1-6, 1-((2R,5S)-4-(6-chloro-1-(2,6-diethylphenyl)-7-(2-fluorophenyl)-2,2-dioxido-1H-pyrido[2,3-c][1,2,6]thiadiazin-4-yl)-2,5-dimethyl-1-piperazinyl)-2-propen-1-one]  2690 nM
11. C=CC(=O)N1C[C@H](C)N(C2=NS(=O)(=O)N(c3c(C)cc(CN(C)C)cc3C(C)C)c3nc(-c4c(N)cccc4F)c(Cl)cc32)C[C@H]1C [Example 8-2, 1-((2R,5S)-4-(7-(2-amino-6-fluorophenyl)-6-chloro-1-(4-((dimethylamino)methyl)-2-methyl-6-(2-propanyl)phenyl)-2,2-dioxido-1H-pyrido[2,3-c][1,2,6]thiadiazin-4-yl)-2,5-dimethyl-1-piperazinyl)-2-propen-1-one]  1460 nM
12. C=CC(=O)N1C[C@H](C)N(C2=NS(=O)(=O)N(c3c(C)cc(N)nc3C(C)C)c3nc(-c4ccccc4F)c(Cl)cc32)C[C@H]1C (atropisomer, axis not shown) [Example 10, 1-((2R,5S)-4-(1-(6-Amino-4-methyl-2-(2-propanyl)-3-pyridinyl)-6-chloro-7-(2-fluorophenyl)-2,2-dioxido-1H-pyrido[2,3-c][1,2,6]thiadiazin-4-yl)-2,5-dimethyl-1-piperazinyl)-2-propen-1-one]  1270 nM
13. C=CC(=O)N1CCN(C2=NS(=O)(=O)N(c3ccccc3C(C)C)c3nc(-c4c(O)cccc4F)c(F)cc32)[C@@H](C)C1 [Example 5, 1-((3S)-4-(6-Fluoro-7-(2-fluoro-6-hydroxyphenyl)-1-(2-isopropylphenyl)-2,2-dioxido-1H-pyrido[2,3-c][1,2,6]thiadiazin-4-yl)-3-methylpiperazin-1-yl)prop-2-en-1-one]  1030 nM
14. C=CC(=O)N1C[C@H](C)N(C2=NS(=O)(=O)N(c3c(CC)cccc3CC)c3nc(-c4c(N)cccc4F)c(Cl)cc32)C[C@H]1C [Example 1-7, 1-((2R,5S)-4-(7-(2-amino-6-fluorophenyl)-6-chloro-1-(2,6-diethylphenyl)-2,2-dioxido-1H-pyrido[2,3-c][1,2,6]thiadiazin-4-yl)-2,5-dimethyl-1-piperazinyl)-2-propen-1-one]  890 nM
15. C=CC(=O)N1CCN(C2=NS(=O)(=O)N(c3ccccc3CC(C)C)c3nc(-c4ccccc4F)c(Cl)cc32)[C@@H](C)C1 [Example 3-2, 1-((3S)-4-(6-chloro-7-(2-fluorophenyl)-1-(2-(2-methylpropyl)phenyl)-2,2-dioxido-1H-pyrido[2,3-c][1,2,6]thiadiazin-4-yl)-3-methyl-1-piperazinyl)-2-propen-1-one]  800 nM
16. C=CC(=O)N1C[C@H](C)N(C2=NS(=O)(=O)N(c3c(C)ccnc3C(C)C)c3nc(-c4ccccc4C)c(Cl)cc32)C[C@H]1C [Example 1-12, 1-((2R,5S)-4-(6-chloro-7-(2-methylphenyl)-1-(4-methyl-2-(2-propanyl)-3-pyridinyl)-2,2-dioxido-1H-pyrido[2,3-c][1,2,6]thiadiazin-4-yl)-2,5-dimethyl-1-piperazinyl)-2-propen-1-one]  600 nM
17. C=CC(=O)N1C[C@H](C)N(C2=NS(=O)(=O)N(c3c(C)cnn3C(C)C)c3nc(-c4ccccc4F)c(Cl)cc32)C[C@H]1C (single isomer, unassigned) [Example 1-11-1]  540 nM
18. C=CC(=O)N1CCN(C2=NS(=O)(=O)N(c3c(C)ccnc3C(C)C)c3nc(-c4ccccc4F)c(Cl)cc32)[C@@H](C)C1 [Example 2-2, (S)-1-(4-(6-chloro-7-(2-fluorophenyl)-1-(2-isopropyl-4-methylpyridin-3-yl)-2,2-dioxido-1H-pyrido[2,3-c][1,2,6]thiadiazin-4-yl)-3-methylpiperazin-1-yl)prop-2-en-1-one]  530 nM
19. C=CC(=O)N1C[C@H](C)N(C2=NS(=O)(=O)N(c3c(C)cc(N)nc3C(C)C)c3nc(-c4ccccc4F)c(Cl)cc32)C[C@H]1C (atropisomer, axis not shown) [Example 10-2, 1-((2R,5S)-4-(1-(6-amino-4-methyl-2-(2-propanyl)-3-pyridinyl)-6-chloro-7-(2-fluorophenyl)-2,2-dioxido-1H-pyrido[2,3-c][1,2,6]thiadiazin-4-yl)-2,5-dimethyl-1-piperazinyl)-2-propen-1-one]  390 nM
20. C=CC(=O)N1C[C@H](C)N(C2=NS(=O)(=O)N(c3c(N)ncnc3C(C)C)c3nc(-c4ccccc4F)c(Cl)cc32)C[C@H]1C (single isomer, unassigned) [Example 9-1]  170 nM
21. C=CC(=O)N1C[C@H](C)N(C2=NS(=O)(=O)N(c3ccccc3C(C)(C)C)c3nc(-c4ccccc4F)c(Cl)cc32)C[C@H]1C [Example 1-1-1, 1-((2R,5S)-4-(6-chloro-7-(2-fluorophenyl)-1-(2-(2-methyl-2-propanyl)phenyl)-2,2-dioxido-1H-pyrido[2,3-c][1,2,6]thiadiazin-4-yl)-2,5-dimethyl-1-piperazinyl)-2-propen-1-one]  150 nM
22. C=CC(=O)N1C[C@H](C)N(C2=NS(=O)(=O)N(c3ccccc3C(C)(C)C)c3nc(-c4ccccc4S(C)(=O)=O)c(Cl)cc32)C[C@H]1C [Example 1-10]  110 nM
23. C=CC(=O)N1C[C@H](C)N(C2=NS(=O)(=O)N(c3ccccc3C(C)(C)C)c3nc(-c4ccccc4S(C)(=O)=O)c(Cl)cc32)C[C@H]1C (atropisomer, axis not shown) [Example 1-10-1]  80 nM
24. C=CC(=O)N1C[C@H](C)N(C2=NS(=O)(=O)N(c3ccc(CN(C)C)cc3C(C)(C)C)c3nc(-c4ccccc4F)c(Cl)cc32)C[C@H]1C [Example 1-13-1, 1-((2R,5S)-4-(6-chloro-1-(4-((dimethylamino)methyl)-2-(2-methyl-2-propanyl)phenyl)-7-(2-fluorophenyl)-2,2-dioxido-1H-pyrido[2,3-c][1,2,6]thiadiazin-4-yl)-2,5-dimethyl-1-piperazinyl)-2-propen-1-one]  40 nM
